Assay results reported in patent US20230339900A1, “CASEIN KINASE 1 DELTA MODULATORS” (Janssen Pharmaceutica NV, priority 2020, published 2023).

How the values were obtained:
[1] = target: human recombinant GST cleaved CSNK1D (Homo sapiens (Human), UniProt P48730); assay: Purified enzyme assay (ADP-Glo Kinase Assay); assay type: biochemical; details: 2 nM CSNK1D, peptide substrate 150 μM, ATP 20 μM, 45 minutes room temperature
Description: In this assay, CSNK1D phosphorylates a substrate peptide PLSRTL-pS-VASLPGL in the presence of ATP. […] This assay monitors CSNK1D kinase activity by measuring the amount of ADP produced in the assay. A substrate mix is prepared by diluting peptide substrate (final concentration 150 μM) with ATP (final concentration 20 μM) in assay buffer (50 mM Tris/HCl pH 7.4+10 mM MgCl2+1 mM DTT+0.1% BSA). The substrate mix is added to each well of a low volume, 384-well, white opaque plate. Test compounds were diluted in HBSS and added in a dose-response to the plate. To start the reaction, 2 nM of constitutively active human recombinant GST cleaved CSNK1D (University of Dundee, clone DU 19064, stored at 0.28 mg/mL in 50 mM Tris/HCl pH 7.5, 150 mM NaCl, 270 mM Sucrose, 0.1 mM EGTA, 0.1% 2-mercaptoethanol, 0.02% Brij-35.1 mM benzamidine, 0.2 mM PMSF) was added to each well and the plate centrifuged for 5 minutes at 1500 rpm. The total volume of each reaction is 5 ul (2 μL of substrate mix, 1 μL of diluted compounds, and 2 μL of human recombinant CSNK1D). The plates are incubated for 45 minutes at room temperature.
ADP was quantified using the ADP-Glo™ Kinase Assay. ADP-Glo Reagent (5 μL) was added to each well. After a 1 hour incubation at room temperature, Kinase Detection Reagent (10 μL) was added to each well and incubated for 30 minutes. Luminescence was measured on the Perkin Elmer Wallac EnVision 2104 Multi-label Reader. The raw data from the Envision is used to calculate percent activity.

[2] = target: human CSNK1D tagged with nanoluciferase (Homo sapiens (Human), UniProt P48730); assay: Whole Cell nBRET CSNK1D Binding Assay; details: living CHO cells stably expressing human CSNK1D-nanoluciferase; NanoBret tracer 130 nM; 2 hours 37° C.; read-out: CSNK1D BRET IC50
human CSNK1D tagged with nanoluciferase, sequence (P48730 whole entry): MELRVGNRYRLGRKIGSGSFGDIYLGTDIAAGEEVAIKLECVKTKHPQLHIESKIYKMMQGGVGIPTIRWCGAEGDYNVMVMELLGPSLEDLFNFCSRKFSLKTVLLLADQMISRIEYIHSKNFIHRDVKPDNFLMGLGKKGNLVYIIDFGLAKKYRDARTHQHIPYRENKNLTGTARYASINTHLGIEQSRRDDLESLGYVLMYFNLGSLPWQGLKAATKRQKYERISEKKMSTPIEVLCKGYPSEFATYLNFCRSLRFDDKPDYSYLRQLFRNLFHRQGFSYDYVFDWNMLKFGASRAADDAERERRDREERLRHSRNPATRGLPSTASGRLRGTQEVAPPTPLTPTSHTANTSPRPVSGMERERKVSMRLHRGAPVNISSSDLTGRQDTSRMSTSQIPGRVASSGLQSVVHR
Description: This cellular binding assay uses a bioluminescence resonance energy transfer to measure human CSNK1D binding activity in living Chinese Hamster Ovary (CHO) cells that are stably expressing human CSNK1D tagged with nanoluciferase. The cells were grown to confluency in growth media (DMEM:F12, 50 u/mLPen/Strep, […] glutamine, and 0.6 mg/mL G418) in 10 cm^2 dishes. Cells were seeded onto white, opaque 384-well plates (Corning, cat #3704) at a density of 8,000 cells/well in serum-free OptiMEM and left to incubated overnight at 37° C., […]. The next day, test compounds were added in a dose response to the plate followed by a NanoBret tracer (130 nM). The plate is mixed on an orbital shaker for 30 seconds, then placed in a 37° C. incubator for 2 hours. NanoBret Nano-Glo Substrate solution (20 μL) is added to all wells and incubated for 3 minutes at room temperature. Donor (450 nm) and acceptor (630 nm) emissions are then measured within 10 minutes using a ClarioStar plate reader. The data is used to calculate millibret units, defined as (E630/E450)*1000. Bret emissions are then graphed against the log of compound concentrations and these graphs are used to determine the IC50 of each compound.

human recombinant GST cleaved CSNK1D, sequence (P48730 whole entry): as above

SMILES | AC50 [1] [nM] | IC50 [2] [nM]
CC(C)Cn1cc(-c2ccnc3[nH]ccc23)c(-c2ccc(F)cn2)n1 [Example 61, 4-[3-(5-Fluoro-2-pyridyl)-1-isobutyl-pyrazol-4-yl]-1H-pyrrolo[2,3-b]pyridine] | 14 | 115
CC(C)Cn1cc(-c2ccnc3[nH]ncc23)c(-c2ccc(F)cn2)n1 [Example 62, 4-(3-(5-Fluoropyridin-2-yl)-1-isobutyl-1H-pyrazol-4-yl)-1H-pyrazolo[3,4-b]pyridine] | 8 | 477
Cc1cc(-c2cn(CC(C)C)nc2-c2ccc(F)cn2)c2cn[nH]c2n1 [Example 63, 4-(3-(5-Fluoropyridin-2-yl)-1-isobutyl-1H-pyrazol-4-yl)-6-methyl-1H-pyrazolo[3,4-b]pyridine] | 6 | 253
COCCn1cc(-c2cc(C)nc3[nH]ncc23)c(-c2ccc(F)cn2)n1 [Example 64, 4-(3-(5-Fluoropyridin-2-yl)-1-(2-methoxyethyl)-1H-pyrazol-4-yl)-6-methyl-1H-pyrazolo[3,4-b]pyridine] | 19 | 393
Fc1ccc(-c2nn(C(F)F)cc2-c2ccnc3[nH]ccc23)nc1 [Example 65, 4-[1-(Difluoromethyl)-3-(5-fluoro-2-pyridyl)pyrazol-4-yl]-1H-pyrrolo[2,3-b]pyridine] | 21 | 171
Fc1ccc(-c2nn(C(F)F)cc2-c2ccnc3[nH]ncc23)nc1 [Example 66, 4-(1-(Difluoromethyl)-3-(5-fluoropyridin-2-yl)-1H-pyrazol-4-yl)-1H-pyrazolo[3,4-b]pyridine] | 526 | 1070
Cc1cc(-c2cn(C(F)F)nc2-c2ccc(F)cn2)c2cn[nH]c2n1 [Example 67, 4-(1-(Difluoromethyl)-3-(5-fluoropyridin-2-yl)-1H-pyrazol-4-yl)-6-methyl-1H-pyrazolo[3,4-b]pyridine] | 18 | 1310
Cc1cc(-c2cn(CC(F)F)nc2-c2ccc(F)cn2)c2cn[nH]c2n1 [Example 69, 4-(1-(2,2-Difluoroethyl)-3-(5-fluoropyridin-2-yl)-1H-pyrazol-4-yl)-6-methyl-1H-pyrazolo[3,4-b]pyridine] | 6 | 311
Cc1cc(-c2cn(CC(F)(F)F)nc2-c2ccc(F)cn2)c2cn[nH]c2n1 [Example 70, 4-(3-(5-Fluoropyridin-2-yl)-1-(2,2,2-trifluoroethyl)-1H-pyrazol-4-yl)-6-methyl-1H-pyrazolo[3,4-b]pyridine] | 12 | 236
Cc1cc(-c2cn(C3CCC3)nc2-c2ccc(F)cn2)c2cn[nH]c2n1 [Example 71, 4-(1-Cyclobutyl-3-(5-fluoropyridin-2-yl)-1H-pyrazol-4-yl)-6-methyl-1H-pyrazolo[3,4-b]pyridine] | 3 | 113
Fc1ccc(-c2nn(C3COC3)cc2-c2ccnc3[nH]ccc23)nc1 [Example 72, 4-[3-(5-Fluoro-2-pyridyl)-1-(oxetan-3-yl)pyrazol-4-yl]-1H-pyrrolo[2,3-b]pyridine] | 8 | 136
Cc1cc(-c2cn(C3COC3)nc2-c2ccc(F)cn2)c2cn[nH]c2n1 [Example 73, 4-(3-(5-Fluoropyridin-2-yl)-1-(oxetan-3-yl)-1H-pyrazol-4-yl)-6-methyl-1H-pyrazolo[3,4-b]pyridine] | 20 | 576
Cc1cc2c(-c3cn(C)nc3-c3ccc(F)cn3)ccnc2[nH]1 [Example 81, 4-(3-(5-Fluoropyridin-2-yl)-1-methyl-1H-pyrazol-4-yl)-2-methyl-1H-pyrrolo[2,3-b]pyridine] | 84 | 1460
CC(C)c1cc2c(-c3cn(C)nc3-c3ccc(F)cn3)ccnc2[nH]1 [Example 83, 4-(3-(5-Fluoropyridin-2-yl)-1-methyl-1H-pyrazol-4-yl)-2-isopropyl-1H-pyrrolo[2,3-b]pyridine] | 54 | 1570
Cn1cc(-c2ccnc3[nH]c(C(F)F)cc23)c(-c2ccc(F)cn2)n1 [Example 84, 2-(Difluoromethyl)-4-(3-(5-fluoropyridin-2-yl)-1-methyl-1H-pyrazol-4-yl)-1H-pyrrolo[2,3-b]pyridine] | 23 | 224
Cn1cc(-c2ccnc3[nH]c(C(F)(F)F)cc23)c(-c2ccc(F)cn2)n1 [Example 85, 4-(3-(5-Fluoropyridin-2-yl)-1-methyl-1H-pyrazol-4-yl)-2-(trifluoromethyl)-1H-pyrrolo[2,3-b]pyridine] | 22 | 255
Cn1cc(-c2ccnc3[nH]cc(C(F)(F)F)c23)c(-c2ccc(F)cn2)n1 [Example 86, 4-(3-(5-Fluoropyridin-2-yl)-1-methyl-1H-pyrazol-4-yl)-3-(trifluoromethyl)-1H-pyrrolo[2,3-b]pyridine] | 48 | 1060
Cn1cc(-c2c(C(F)(F)F)cnc3[nH]ccc23)c(-c2ccc(F)cn2)n1 [Example 87, 4-[3-(5-Fluoro-2-pyridyl)-1-methyl-pyrazol-4-yl]-5-(trifluoromethyl)-1H-pyrrolo[2,3-b]pyridine] | 4 | 94
Cn1cc(-c2ccnc3[nH]cc(C#N)c23)c(-c2ccc(F)cn2)n1 [Example 88, 4-[3-(5-Fluoro-2-pyridyl)-1-methyl-pyrazol-4-yl]-1H-pyrrolo[2,3-b]pyridine-3-carbonitrile] | 16 | 144
Cn1cc(-c2c(CC#N)cnc3[nH]ccc23)c(-c2ccc(F)cn2)n1 [Example 90, 2-[4-[3-(5-Fluoro-2-pyridyl)-1-methyl-pyrazol-4-yl]-1H-pyrrolo[2,3-b]pyridin-5-yl]acetonitrile] | 75 | 7160

These reach a lower IC50 [2]. Values come first.

AC50 [1] [nM] | IC50 [2] [nM] | SMILES
4 | 80 | FCCn1cc(-c2ccnc3[nH]ccc23)c(-c2ccc(F)cn2)n1 [Example 68, 4-[1-(2-Fluoroethyl)-3-(5-fluoro-2-pyridyl)pyrazol-4-yl]-1H-pyrrolo[2,3-b]pyridine]
1 | 24 | Cn1cc(-c2ccnc3[nH]cc(Br)c23)c(-c2ccc(F)cn2)n1 [Example 75, 3-Bromo-4-[3-(5-fluoro-2-pyridyl)-1-methyl-pyrazol-4-yl]-1H-pyrrolo[2,3-b]pyridine]
1 | 17 | Cn1cc(-c2ccnc3[nH]cc(Cl)c23)c(-c2ccc(F)cn2)n1 [Example 76, 3-Chloro-4-[3-(5-fluoro-2-pyridyl)-1-methyl-pyrazol-4-yl]-1H-pyrrolo[2,3-b]pyridine]
7 | 53 | Cn1cc(-c2ccnc3[nH]cc(F)c23)c(-c2ccc(F)cn2)n1 [Example 77, 3-Fluoro-4-[3-(5-fluoro-2-pyridyl)-1-methyl-pyrazol-4-yl]-1H-pyrrolo[2,3-b]pyridine]
4 | 50 | Cn1cc(-c2c(F)cnc3[nH]ccc23)c(-c2ccc(F)cn2)n1 [Example 78, 5-Fluoro-4-[3-(5-fluoro-2-pyridyl)-1-methyl-pyrazol-4-yl]-1H-pyrrolo[2,3-b]pyridine]
7 | 52 | Cc1cnc2[nH]ccc2c1-c1cn(C)nc1-c1ccc(F)cn1 [Example 79, 4-[3-(5-Fluoro-2-pyridyl)-1-methyl-pyrazol-4-yl]-5-methyl-1H-pyrrolo[2,3-b]pyridine]
1 | 41 | Cc1cc(-c2cn(C)nc2-c2ccc(F)cn2)c2cc[nH]c2n1 [Example 80, 4-[3-(5-Fluoro-2-pyridyl)-1-methyl-pyrazol-4-yl]-6-methyl-1H-pyrrolo[2,3-b]pyridine]
6 | 59 | Cc1c[nH]c2nccc(-c3cn(C)nc3-c3ccc(F)cn3)c12 [Example 82, 4-[3-(5-Fluoro-2-pyridyl)-1-methyl-pyrazol-4-yl]-3-methyl-1H-pyrrolo[2,3-b]pyridine]
3 | 71 | Cn1cc(-c2c(C#N)cnc3[nH]ccc23)c(-c2ccc(F)cn2)n1 [Example 89, 4-[3-(5-Fluoro-2-pyridyl)-1-methyl-pyrazol-4-yl]-1H-pyrrolo[2,3-b]pyridine-5-carbonitrile]
